Reference: PubChem BioAssay AID248 (DTP/NCI, 2004)
Values joined by “and” are separate entries in the source; they are usually repeats but may differ in a detail not shown here. Identical values can stand only once. Inconclusive results and toxic doses are left out. Rule as the data show it: active = T/C of 150% or more; inactive = T/C below 125%.

Test system: L1210 leukemia ip in BDF1 mice, survival T/C
Experiment: NCI In Vivo Anticancer Drug Screen. Data for tumor model L1210 Leukemia (intraperitoneal) in B6D2F1 (BDF1) mice
Settings: endpoint: mean survival time, higher = longer survival
In short: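 Value reflects the ratio of survival in compound-treated mice to survival in vehicle-treated controls, with both groups carrying the same transplanted tumor.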

[1] = dose: 25.0 mg/kg/injection, schedule: Q01DX009 (ip), vehicle: saline
[2] = dose: 100.0 mg/kg/injection, schedule: Q01DX009 (ip), vehicle: Klucel (hydroxypropylcellulose) (HPC)
[3] = dose: 100.0 mg/kg/injection, schedule: Q04DX003 (ip), vehicle: Klucel (hydroxypropylcellulose) (HPC)
[4] = dose: 200.0 mg/kg/injection, schedule: Q01DX009 (ip), vehicle: Klucel (hydroxypropylcellulose) (HPC)
[5] = dose: 200.0 mg/kg/injection, schedule: Q04DX003 (ip), vehicle: Klucel (hydroxypropylcellulose) (HPC)
[6] = dose: 50.0 mg/kg/injection, schedule: Q01DX001 (ip), vehicle: carboxymethylcellulose (CMC)
[7] = dose: 100.0 mg/kg/injection, schedule: Q01DX001 (ip), vehicle: carboxymethylcellulose (CMC)
[8] = dose: 200.0 mg/kg/injection, schedule: Q01DX001 (ip), vehicle: carboxymethylcellulose (CMC)
[9] = dose: 400.0 mg/kg/injection, schedule: Q01DX001 (ip), vehicle: carboxymethylcellulose (CMC)
[10] = dose: 400.0 mg/kg/injection, schedule: Q01DX009 (ip), vehicle: Klucel (hydroxypropylcellulose) (HPC)
[11] = dose: 100.0 mg/kg/injection, schedule: Q01DX001 (ip), vehicle: saline
[12] = dose: 100.0 mg/kg/injection, schedule: Q01DX009 (ip), vehicle: saline
[13] = dose: 200.0 mg/kg/injection, schedule: Q01DX001 (ip), vehicle: saline
[14] = dose: 200.0 mg/kg/injection, schedule: Q01DX009 (ip), vehicle: saline
[15] = dose: 400.0 mg/kg/injection, schedule: Q01DX001 (ip), vehicle: saline
[16] = dose: 400.0 mg/kg/injection, schedule: Q01DX009 (ip), vehicle: saline
[17] = dose: 100.0 mg/kg/injection, schedule: Q04DX002 (ip), vehicle: saline
[18] = dose: 200.0 mg/kg/injection, schedule: Q04DX002 (ip), vehicle: saline
[19] = dose: 400.0 mg/kg/injection, schedule: Q04DX002 (ip), vehicle: saline
[20] = dose: 100.0 mg/kg/injection, schedule: Q04DX003 (ip), vehicle: saline with Tween-80

Measured: T/C

c1ccc2c[n+]3ccccc3cc2c1
inactive: dose: 6.25 mg/kg/injection, schedule: Q01DX009 (ip), vehicle: saline 103 % of control | dose: 12.5 mg/kg/injection, schedule: Q01DX009 (ip), vehicle: saline 100 % of control | [1] 111 % of control

Nc1nc(=S)[nH]c(C(=O)O)c1Oc1ccccc1
inactive: dose: 50.0 mg/kg/injection, schedule: Q01DX009 (ip), vehicle: Klucel (hydroxypropylcellulose) (HPC) 87 % of control | dose: 50.0 mg/kg/injection, schedule: Q04DX003 (ip), vehicle: Klucel (hydroxypropylcellulose) (HPC) 86 % of control | dose: 100.0 mg/kg/injection, schedule: Q01DX001 (ip), vehicle: Klucel (hydroxypropylcellulose) (HPC) 92 % of control | [2] 102 % of control | [3] 89 % of control | dose: 200.0 mg/kg/injection, schedule: Q01DX001 (ip), vehicle: Klucel (hydroxypropylcellulose) (HPC) 94 % of control | [4] 95 % of control | [5] 87 % of control

CCSC1C(O)C(CO)OC1n1ccc(=O)[nH]c1=O (centres undefined)
inactive: dose: 100.0 mg/kg/injection, schedule: Q01DX005 (ip), vehicle: saline 92 % of control | dose: 200.0 mg/kg/injection, schedule: Q01DX005 (ip), vehicle: saline 101 % of control

CC1CC(C)(C)S(=O)(=O)O1 (centres undefined)
inactive: [6] 107 % of control | [7] 98 % of control | [8] 109 % of control | [9] 102 % of control

OCC(O)C1OCOC2COCOC21 (centres undefined)
inactive: dose: 222.0 mg/kg/injection, schedule: Q01DX Z (ip), vehicle: saline 98 % of control | dose: 333.0 mg/kg/injection, schedule: Q01DX Z (ip), vehicle: saline 117 % of control | dose: 500.0 mg/kg/injection, schedule: Q01DX Z (ip), vehicle: saline 105 % of control

O=C(O)C(O)C(F)(F)F (centres undefined)
inactive: dose: 31.0 mg/kg/injection, schedule: Q01DX Z (ip), vehicle: methylcellulose (MC) 102 % of control | dose: 62.5 mg/kg/injection, schedule: Q01DX Z (ip), vehicle: methylcellulose (MC) 96 % of control | dose: 125.0 mg/kg/injection, schedule: Q01DX Z (ip), vehicle: methylcellulose (MC) 100 % of control | dose: 250.0 mg/kg/injection, schedule: Q01DX Z (ip), vehicle: methylcellulose (MC) 97 % of control

Cc1cc(OC(=O)Nc2cccc([N+](=O)[O-])c2)cc(C)c1Cl
inactive: [2] 100 % of control | [4] 90 % of control | [10] 93 % of control

CCCCN(C)N=Nc1n[nH]nc1C(N)=O
inactive: dose: 25.0 mg/kg/injection, schedule: Q01DX Z (ip), vehicle: carboxymethylcellulose (CMC) 118 % of control | dose: 50.0 mg/kg/injection, schedule: Q01DX Z (ip), vehicle: carboxymethylcellulose (CMC) 113 % of control | dose: 250.0 mg/kg/injection, schedule: Q01DX001 (ip), vehicle: carboxymethylcellulose (CMC) 123 % of control

S=C(c1cccs1)N1CCOCC1
inactive: dose: 100.0 mg/kg/injection, schedule: Q04DX003 (ip), vehicle: gum acacia 93 % of control | dose: 200.0 mg/kg/injection, schedule: Q04DX003 (ip), vehicle: gum acacia 100 % of control | dose: 400.0 mg/kg/injection, schedule: Q04DX003 (ip), vehicle: gum acacia 91 % of control

COc1nc(N)nc2c1ncn2C1OC(CO)CC1O (centres undefined)
inactive: [6] 93 % of control | [7] 93 % of control | [8] 93 % of control | [9] 96 % of control

CCCCCc1ccccc1
inactive: dose: 200.0 mg/kg/injection, schedule: Q01DX Z (ip), vehicle: carboxymethylcellulose (CMC) 103 % of control | dose: 400.0 mg/kg/injection, schedule: Q01DX Z (ip), vehicle: carboxymethylcellulose (CMC) 108 % of control | dose: 800.0 mg/kg/injection, schedule: Q01DX Z (ip), vehicle: carboxymethylcellulose (CMC) 91 % of control

Cc1ccc([N+](=O)[O-])cc1NS(=O)(=O)c1cc(Cl)c(Cl)cc1Cl
inactive: [2] 95 % of control | [4] 108 % of control | [10] 90 % of control

Cc1ccc(N)cc1Br
inactive: [11] 102 % of control | [12] 100 % of control | [13] 94 % of control | [14] 90 % of control | [15] 94 % of control | [16] 103 % of control

O=C(c1cc(Cl)cc(Cl)c1)N1CC1
inactive: [1] 100 % of control | dose: 50.0 mg/kg/injection, schedule: Q01DX009 (ip), vehicle: saline 91 % of control | [12] 90 % of control | [14] 100 % of control | [16] 96 % of control

CC(C)(Cl)C(N)=O
inactive: [11] 101 % of control | [13] 103 % of control | [15] 97 % of control

Cc1nc2c(o1)CCCC2
inactive: dose: 25.0 mg/kg/injection, schedule: Q01DX009 (ip), vehicle: carboxymethylcellulose (CMC) 94 % of control and 107 % of control | dose: 50.0 mg/kg/injection, schedule: Q01DX009 (ip), vehicle: carboxymethylcellulose (CMC) 97 % of control and 103 % of control | dose: 100.0 mg/kg/injection, schedule: Q01DX009 (ip), vehicle: carboxymethylcellulose (CMC) 94 % of control and 105 % of control | dose: 100.0 mg/kg/injection, schedule: Q04DX002 (ip), vehicle: carboxymethylcellulose (CMC) 103 % of control and 113 % of control | dose: 200.0 mg/kg/injection, schedule: Q04DX002 (ip), vehicle: carboxymethylcellulose (CMC) 98 % of control and 100 % of control | dose: 400.0 mg/kg/injection, schedule: Q04DX002 (ip), vehicle: carboxymethylcellulose (CMC) 88 % of control

C/C(CC(C)(C)c1ccccc1)=N/NC(N)=O
inactive: [2] 104 % of control | [4] 98 % of control

O=C(O)C1CCOCC1
inactive: [2] 98 % of control | [3] 96 % of control | [4] 95 % of control | [5] 89 % of control | [10] 111 % of control | dose: 400.0 mg/kg/injection, schedule: Q04DX003 (ip), vehicle: Klucel (hydroxypropylcellulose) (HPC) 88 % of control

NC(=O)CC(N)C(N)=O (centres undefined)
inactive: [17] 98 % of control | [18] 106 % of control | [19] 109 % of control

CN(C)CCCNC(=O)Nc1ccc(Cl)cc1
inactive: dose: 100.0 mg/kg/injection, schedule: Q04DX002 (ip), vehicle: other 101 % of control | dose: 200.0 mg/kg/injection, schedule: Q04DX002 (ip), vehicle: other 101 % of control | dose: 400.0 mg/kg/injection, schedule: Q04DX002 (ip), vehicle: other 97 % of control

CNC(=O)Nc1nc2ccccc2[nH]1
inactive: [11] 103 % of control | [20] 109 % of control | [13] 115 % of control | dose: 200.0 mg/kg/injection, schedule: Q04DX003 (ip), vehicle: saline with Tween-80 109 % of control | [15] 100 % of control

Nc1ccc(N=Nc2ccccc2)c2cccnc12 (tested in a mixture with another compound)
inactive: dose: 100.0 mg/kg/injection, schedule: Q04DX003 (sc), vehicle: olive oil, sesame oil, peanut oil 100 % of control | dose: 200.0 mg/kg/injection, schedule: Q04DX003 (sc), vehicle: olive oil, sesame oil, peanut oil 100 % of control | dose: 400.0 mg/kg/injection, schedule: Q04DX003 (sc), vehicle: olive oil, sesame oil, peanut oil 117 % of control

OCCOCC#CCOCCO
inactive: [12] 102 % of control | [14] 96 % of control | [16] 98 % of control

NC(N)=N/N=C\c1c[nH]c2ccc(Br)cc12
inactive: dose: 15.0 mg/kg/injection, schedule: Q01DX Z (ip), vehicle: saline 96 % of control | dose: 30.0 mg/kg/injection, schedule: Q01DX Z (ip), vehicle: saline 113 % of control | dose: 60.0 mg/kg/injection, schedule: Q01DX Z (ip), vehicle: saline 103 % of control | dose: 120.0 mg/kg/injection, schedule: Q01DX Z (ip), vehicle: saline 106 % of control | dose: 240.0 mg/kg/injection, schedule: Q01DX Z (ip), vehicle: saline 98 % of control | dose: 240.0 mg/kg/injection, schedule: Q01DX Z (oral), vehicle: saline 94 % of control | dose: 480.0 mg/kg/injection, schedule: Q01DX Z (oral), vehicle: saline 94 % of control

COC(=O)C(C)C(C)(O)C(C)(C)C (centres undefined)
inactive: [20] 101 % of control

CCCOCCOCCOC(C)Oc1ccccc1OC (centres undefined)
inactive: [17] 92 % of control | [18] 88 % of control | [19] 95 % of control
